Measurements as given in patent US9994533B2, “Method of preparing ATG's analogue, and the application of ATG and it's analogue” (Longhua Hospital Shanghai University of Traditional Chinese …, priority 2016, dated 2018).

Tests used:
NOX4 mRNA = NOX4 mRNA expression in human immortal podocytes under high glucose (Realtime PCR); format: cell-based; conditions: FIG. 7
Description: The detection method of Western Blot and mRNA used in the present embodiment is a detection method commonly used by person skilled in the art, and the specific detection method is described in “Molecular Biology Laboratory Manual” (People's Military Medical Press, published in 2011 Jun. 1). 3.1 Western blot and Realtime PCR confirmed that ATG in human immortal podocytes can inhibit the overexpression of NOX4 caused by high glucose stimuli, see table 5 and FIG. 6. The expression of NOX4 in the total protein, membrane protein and mitochondrial protein of human immortal podocytes was detected in the experiment.

PP2A = PP2A activity in immortal podocytes (PP2A activity kit); format: cell-based; conditions: 1 hour
Description: Immortal podocytes were stimulated with ATG at concentrations of 0, 1.0 μm, 3.3 μm, and 10 μm, and the stimulation time was 1 hour. The activity of PP2A was detected by PP2A activity kit (R & D systems, DYC3309-2).

NOX = assay: NOX-related ROS induced by high glucose (NADPH oxidative activity, luminescence); format: cell-based, human
Description: The human immortal podocytes were divided into 6 groups: blank group, high glucose group (30 mM), high glucose+10 μMATG, high glucose+20 μMATG, high glucose+50 μMATG, high glucose+100 μMATG.
The effects of ATG on NOX producing ROS were observed by measuring the oxidative activity of NADPH (reduced coenzyme II): The […] were washed twice with HBSS (Hanks balanced salt solution), during which the cell culture dish was placed on ice. The cells were scraped with frozen HBSS containing protease inhibitors, then homogenated. The protein concentration was measured and calculated. 30 μg protein was added to each well and 25 μM […] (Santa Cruz) and 200 μM NADPH (Cayman Chemical) were also added. After staying in the dark room for 10 minutes at 37° C., the luminescence of each well was measured. Results: There was significant difference of ROS between high glucose group and normal group (P<0.05). The different concentration of ATG (10 μM, 20 μM, 50 μM, 100 μM) could reduce the amount of ROS induced by NOX. See Table 7 and FIG. 10 for the details.

COc1cc(C[C@H]2C(=O)OC[C@@H]2Cc2ccc(OC)c(OC)c2)ccc1O [ATG, Arctigenin]
overexpression of NOX4 mRNA induced by high glucose (NOX4 mRNA): able to inhibit the overexpression of NOX4 mRNA
activity of PP2A, dependence on concentration (PP2A; ATG 0 to 10 μm): increased with the increase of ATG concentration
PP2A activity values, mean (PP2A; ATG 1.0 μm): 0.0268
PP2A activity values, mean (PP2A; ATG 3.3 μm): 0.0279
PP2A activity values, mean (PP2A; ATG 10 μm): 0.0484
NOX-related ROS (luminescence), mean (NOX; HG + 10 μM ATG): 1030
NOX-related ROS (luminescence), mean (NOX; HG + 20 μM ATG): 864
NOX-related ROS (luminescence), mean (NOX; HG + 50 μM ATG): 794
NOX-related ROS (luminescence), mean (NOX; HG + 100 μM ATG): 832
